Species on record: Rattus norvegicus
Assay: Open TG-GATES - Regimen: Daily Repeat
Type: toxicity, organism-based, Sprague-Dawley
Parameters: regimen Daily Repeat, gender Male, age 6 weeks
Settings: in vivo, po, route gavage; for gamma-GTP / ALP / ALT / AST / CRE / Ca / Cl / DBIL / GLC / IP / K / LDH / Na / PL / RALB / TBIL / TC / TG / TP / BUN: tissue Plasma; for APTT / Bas / Eos / Fbg / Hb / Lym / MCH / MCHC / MCV / Mono / Plat / RBC / Ret / WBC / Ht: tissue Blood; for KIDNEY_L / KIDNEY_R / KIDNEY_TOTAL: tissue Kidney
[1] = 75 mg/kg, 72 h, dose level Middle, time 3 day
[2] = 75 mg/kg, […], dose level Middle, time 7 day
[3] = 75 mg/kg, […], dose level Middle, time 14 day
[4] = 75 mg/kg, […], dose level Middle, time 28 day
[5] = 250 mg/kg, 72 h, dose level High, time 3 day
[6] = 250 mg/kg, […], dose level High, time 7 day
[7] = 250 mg/kg, […], dose level High, time 14 day
[8] = 250 mg/kg, […], dose level High, time 28 day

## O=C1CN(/N=C/c2ccc(-c3ccc([N+](=O)[O-])cc3)o2)C(O)=N1 [DANTROLENE]
25 mg/kg, […], dose level Low, time 28 day
  gamma-GTP: 1.6 IU/L
[1]
  TERMINAL_BW: 213.7 g
  APTT: 19.1 s
  Bas: 0%
  Eos: 1%
  Fbg: 223.4 mg/dL
  Hb: 14.1 g/dL
  Lym: 81.8%
  MCH: 21.6 pg
  MCHC: 33.8%
  MCV: 63.8 fL
  Mono: 7%
  Plat: 126.6 x10_4/uL
  RBC: 656.2 x10_4/ul
  Ret: 2.9%
  WBC: 97.1 x10_2/uL
  KIDNEY_L: 1 g
  KIDNEY_R: 1 g
  KIDNEY_TOTAL: 2 g
  ALP: 615 IU/L
  ALT: 30.2 IU/L
  AST: 63.2 IU/L
  CRE: 0.6 mg/dL
  Ca: 10.8 mg/dL
  Cl: 105.2 meq/L
  DBIL: 0.01 mg/dL
  GLC: 188 mg/dL
  IP: 6 mg/dL
  K: 4.2 meq/L
  LDH: 107.2 IU/L
  Na: 140.6 meq/L
  PL: 142 mg/dL
  RALB: 3.9 g/dL
  TBIL: 0.3 mg/dL
  TC: 75.4 mg/dL
  TG: 52.4 mg/dL
  TP: 5.8 g/dL
  gamma-GTP: 1 IU/L
[2]
  TERMINAL_BW: 242.5 g
  APTT: 17.1 s
  Bas: 0%
  Eos: 1%
  Fbg: 207.4 mg/dL
  Hb: 14.3 g/dL
  Lym: 77.8%
  MCH: 21.1 pg
  MCHC: 33.5%
  MCV: 63 fL
  Mono: 8.4%
  RBC: 679 x10_4/ul
  Ret: 5.6%
  WBC: 121.9 x10_2/uL
  KIDNEY_L: 1.1 g
  KIDNEY_R: 1.1 g
  KIDNEY_TOTAL: 2.1 g
  ALP: 857.6 IU/L
  ALT: 34 IU/L
  AST: 61.2 IU/L
  BUN: 18.2 mg/dL
  CRE: 0.5 mg/dL
  Ca: 10.8 mg/dL
  Cl: 108.6 meq/L
  DBIL: 0.014 mg/dL
  GLC: 185.6 mg/dL
  IP: 6.9 mg/dL
  K: 4.8 meq/L
  LDH: 107.4 IU/L
  Na: 139.6 meq/L
  PL: 139.4 mg/dL
  RALB: 3.8 g/dL
  TBIL: 0.4 mg/dL
  TC: 65.6 mg/dL
  TG: 74.4 mg/dL
  TP: 5.7 g/dL
  gamma-GTP: 1.4 IU/L
[3]
  TERMINAL_BW: 289.9 g
  APTT: 16.7 s
  Bas: 0%
  Eos: 0.6%
  Fbg: 222.4 mg/dL
  Hb: 15.3 g/dL
  Lym: 83.6%
  MCH: 21 pg
  MCHC: 34%
  MCV: 61.8 fL
  Mono: 5.8%
  Plat: 114.6 x10_4/uL
  RBC: 727.2 x10_4/ul
  Ret: 4.7%
  WBC: 127.2 x10_2/uL
  KIDNEY_L: 1.2 g
  KIDNEY_R: 1.2 g
  KIDNEY_TOTAL: 2.4 g
  ALP: 636.8 IU/L
  ALT: 30.6 IU/L
  AST: 57.4 IU/L
  BUN: 19.6 mg/dL
  CRE: 0.6 mg/dL
  Ca: 10.8 mg/dL
  Cl: 105.4 meq/L
  DBIL: 0.016 mg/dL
  GLC: 186.8 mg/dL
  IP: 6.5 mg/dL
  K: 3.9 meq/L
  LDH: 101.8 IU/L
  Na: 141 meq/L
  PL: 160.6 mg/dL
  RALB: 3.8 g/dL
  TBIL: 0.4 mg/dL
  TC: 66.4 mg/dL
  TG: 130.4 mg/dL
  TP: 5.9 g/dL
  gamma-GTP: 0.6 IU/L
[4]
  TERMINAL_BW: 346.6 g
  APTT: 16.8 s
  Bas: 0%
  Eos: 1.2%
  Fbg: 231.8 mg/dL
  Hb: 15.7 g/dL
  Ht: 46.3%
  Lym: 79.4%
  MCH: 19.5 pg
  MCHC: 33.9%
  MCV: 57.5 fL
  Mono: 5.4%
  Plat: 118.7 x10_4/uL
  RBC: 806.6 x10_4/ul
  Ret: 4.4%
  KIDNEY_L: 1.4 g
  KIDNEY_R: 1.4 g
  KIDNEY_TOTAL: 2.8 g
  ALP: 509.8 IU/L
  ALT: 31.8 IU/L
  AST: 53 IU/L
  BUN: 18.8 mg/dL
  CRE: 0.5 mg/dL
  Ca: 10.7 mg/dL
  Cl: 106.4 meq/L
  DBIL: 0.05 mg/dL
  GLC: 179.8 mg/dL
  IP: 6.2 mg/dL
  K: 4.2 meq/L
  LDH: 122.4 IU/L
  Na: 140 meq/L
  PL: 169.6 mg/dL
  RALB: 4 g/dL
  TBIL: 0.2 mg/dL
  TC: 72.4 mg/dL
  TG: 139.8 mg/dL
  TP: 6.2 g/dL
  gamma-GTP: 1.2 IU/L
[5]
  TERMINAL_BW: 193.8 g
  APTT: 18.5 s
  Bas: 0%
  Eos: 1%
  Fbg: 226.8 mg/dL
  Hb: 14.7 g/dL
  Lym: 85%
  MCH: 21.1 pg
  MCHC: 33.3%
  MCV: 63.2 fL
  Mono: 6.6%
  Plat: 124.6 x10_4/uL
  RBC: 696 x10_4/ul
  Ret: 2.8%
  WBC: 69 x10_2/uL
  KIDNEY_L: 1 g
  KIDNEY_R: 1 g
  KIDNEY_TOTAL: 2 g
  ALP: 630.6 IU/L
  ALT: 29.6 IU/L
  AST: 52.4 IU/L
  BUN: 17.2 mg/dL
  CRE: 0.5 mg/dL
  Ca: 10.4 mg/dL
  Cl: 103.8 meq/L
  DBIL: 0.018 mg/dL
  GLC: 174 mg/dL
  IP: 8.2 mg/dL
  K: 4.4 meq/L
  LDH: 99.6 IU/L
  Na: 139.2 meq/L
  PL: 121.2 mg/dL
  RALB: 3.7 g/dL
  TBIL: 0.4 mg/dL
  TC: 62.8 mg/dL
  TG: 24 mg/dL
  TP: 5.5 g/dL
  gamma-GTP: 1 IU/L
[6]
  TERMINAL_BW: 231.2 g
  APTT: 18.1 s
  Bas: 0%
  Eos: 0.8%
  Fbg: 233 mg/dL
  Hb: 14.4 g/dL
  Lym: 81.4%
  MCH: 21.2 pg
  MCHC: 33.5%
  MCV: 63.3 fL
  Mono: 6%
  Plat: 108.9 x10_4/uL
  RBC: 680.2 x10_4/ul
  Ret: 5.8%
  WBC: 128.7 x10_2/uL
  KIDNEY_L: 1.1 g
  KIDNEY_R: 1.1 g
  KIDNEY_TOTAL: 2.2 g
  ALP: 838.2 IU/L
  ALT: 31.4 IU/L
  AST: 51.6 IU/L
  BUN: 16 mg/dL
  CRE: 0.6 mg/dL
  Ca: 10.8 mg/dL
  Cl: 107.2 meq/L
  DBIL: 0.01 mg/dL
  GLC: 183.8 mg/dL
  IP: 7.4 mg/dL
  K: 4.7 meq/L
  LDH: 102.6 IU/L
  Na: 140.2 meq/L
  PL: 160.2 mg/dL
  RALB: 3.6 g/dL
  TBIL: 0.4 mg/dL
  TC: 75.2 mg/dL
  TG: 98.4 mg/dL
  TP: 5.6 g/dL
  gamma-GTP: 1.4 IU/L
[7]
  TERMINAL_BW: 269 g
  APTT: 19.3 s
  Bas: 0%
  Eos: 0.6%
  Fbg: 233.6 mg/dL
  Hb: 15 g/dL
  Lym: 82.2%
  MCH: 20.1 pg
  MCHC: 33.6%
  MCV: 59.7 fL
  Mono: 6.4%
  Plat: 119.9 x10_4/uL
  RBC: 750.6 x10_4/ul
  Ret: 5.6%
  WBC: 115.6 x10_2/uL
  KIDNEY_L: 1.2 g
  KIDNEY_R: 1.2 g
  KIDNEY_TOTAL: 2.4 g
  ALP: 701.4 IU/L
  ALT: 26.4 IU/L
  AST: 55.8 IU/L
  BUN: 17.6 mg/dL
  CRE: 0.5 mg/dL
  Ca: 10.8 mg/dL
  Cl: 104.4 meq/L
  DBIL: 0.042 mg/dL
  GLC: 172 mg/dL
  IP: 7.9 mg/dL
  K: 4.2 meq/L
  LDH: 92 IU/L
  Na: 141.4 meq/L
  PL: 152.6 mg/dL
  RALB: 3.9 g/dL
  TBIL: 0.4 mg/dL
  TC: 64.4 mg/dL
  TG: 88 mg/dL
  TP: 5.8 g/dL
  gamma-GTP: 1.2 IU/L
[8]
  TERMINAL_BW: 326.2 g
  APTT: 18.4 s
  Bas: 0%
  Eos: 1%
  Fbg: 288.6 mg/dL
  Hb: 15.3 g/dL
  Ht: 45%
  Lym: 80.4%
  MCH: 19.3 pg
  MCHC: 33.9%
  MCV: 56.9 fL
  Mono: 6.4%
  Plat: 134.2 x10_4/uL
  RBC: 791.2 x10_4/ul
  Ret: 5.2%
  WBC: 109.3 x10_2/uL
  KIDNEY_L: 1.7 g
  KIDNEY_R: 1.7 g
  KIDNEY_TOTAL: 3.3 g
  ALP: 453.2 IU/L
  ALT: 24.6 IU/L
  AST: 35.8 IU/L
  BUN: 24.8 mg/dL
  CRE: 0.7 mg/dL
  Ca: 10.9 mg/dL
  Cl: 106.6 meq/L
  DBIL: 0.04 mg/dL
  GLC: 175.6 mg/dL
  IP: 7.3 mg/dL
  K: 4.3 meq/L
  LDH: 96.2 IU/L
  Na: 141.2 meq/L
  PL: 174.6 mg/dL
  RALB: 3.9 g/dL
  TBIL: 0.3 mg/dL
  TC: 70.6 mg/dL
  TG: 152.2 mg/dL
  TP: 6.1 g/dL
  gamma-GTP: 2.4 IU/L
